# ChEMBL document CHEMBL5325457, “Targeting m6A binding protein YTHDFs for cancer therapy” (Bioorg Med Chem, 2023)
# Assays:
# [1] = Inhibition of YTHDF (unknown origin); set-up: species or system Homo sapiens
# [2] = target: T1, YTH domain-containing family protein 2 (Homo sapiens, UniProt Q9Y5A9); assay: Inhibition of YTHDF2 YTH domain (unknown origin) (383 to 579 residues) expressed as Escherichia coli BL21 (DE3) Rosetta cells by HTFR based binding assay
# T1 sequence (Q9Y5A9 whole entry): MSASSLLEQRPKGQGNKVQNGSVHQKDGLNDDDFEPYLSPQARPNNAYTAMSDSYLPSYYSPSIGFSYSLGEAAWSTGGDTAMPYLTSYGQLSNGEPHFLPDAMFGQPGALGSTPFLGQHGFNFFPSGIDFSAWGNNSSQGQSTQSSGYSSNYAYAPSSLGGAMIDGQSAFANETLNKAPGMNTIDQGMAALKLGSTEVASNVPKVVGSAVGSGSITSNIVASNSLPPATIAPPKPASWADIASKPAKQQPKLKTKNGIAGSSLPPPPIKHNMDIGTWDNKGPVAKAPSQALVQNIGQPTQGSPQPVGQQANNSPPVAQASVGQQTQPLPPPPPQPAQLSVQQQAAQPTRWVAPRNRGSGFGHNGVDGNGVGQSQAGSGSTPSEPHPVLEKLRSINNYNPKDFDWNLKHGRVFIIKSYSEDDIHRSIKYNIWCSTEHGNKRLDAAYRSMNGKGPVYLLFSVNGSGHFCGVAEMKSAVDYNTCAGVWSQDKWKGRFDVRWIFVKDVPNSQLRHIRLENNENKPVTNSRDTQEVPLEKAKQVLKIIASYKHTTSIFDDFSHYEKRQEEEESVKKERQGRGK
SMILES,EC50 [1],IC50 [2]
CCN(CC)CCn1sc2ccccc2c1=O,1.69 µM,
CNc1ncnc2c(-c3ccccc3)[nH]nc12,,491 µM
Cn1c(=O)cc(C2CC2)[nH]c1=O,,161 µM
CNc1ncnc2c(C)[nH]nc12,,174 µM
O=c1c2ccccc2sn1CCN1CCOCC1,2.83 µM,
O=c1cc(C2CC2)[nH]c(=O)[nH]1,,410 µM
O=c1c2ccccc2[se]n1-c1ccccc1 [EBSELEN],1.5 µM,
